Assay results published in PubChem BioAssay AID493250 (Broad Institute, 2011).
Calls of active or inactive are those of the source.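 The calls were made as follows: active = signal decrease with fitted half-maximal dose at or below ten times the highest valid tested dose; inconclusive = poor fit, or flat fit at 30 to 70% inhibition; inactive = the rest.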

Target: Zinc finger protein mex-5 (Caenorhabditis elegans) (UniProt Q9XUB2)
Assay: inhibitors of MEX-5 RNA binding, dose response, biochemical, fluorescence polarization, C. elegans, cherry-picked, round 3 (AID 493250)
Settings: purified MEX-5-MBP, FITC-TCR2 RNA fluorescence polarization

Sequence of Zinc finger protein mex-5 (Caenorhabditis elegans) (Q9XUB2 whole entry, looked up): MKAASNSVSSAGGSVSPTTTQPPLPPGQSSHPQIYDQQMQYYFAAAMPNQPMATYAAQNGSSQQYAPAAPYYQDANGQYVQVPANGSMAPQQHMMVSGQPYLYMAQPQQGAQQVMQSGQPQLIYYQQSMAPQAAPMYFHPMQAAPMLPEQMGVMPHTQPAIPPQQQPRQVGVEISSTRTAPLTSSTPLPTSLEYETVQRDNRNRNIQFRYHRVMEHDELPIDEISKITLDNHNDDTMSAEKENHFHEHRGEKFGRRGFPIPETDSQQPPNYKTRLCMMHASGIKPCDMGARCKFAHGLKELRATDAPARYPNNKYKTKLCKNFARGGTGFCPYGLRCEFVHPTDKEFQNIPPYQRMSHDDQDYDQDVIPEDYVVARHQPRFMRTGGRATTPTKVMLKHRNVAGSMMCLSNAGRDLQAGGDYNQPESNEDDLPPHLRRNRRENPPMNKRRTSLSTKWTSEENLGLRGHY

Compound | AC50
Cc1cccc2c(N=Nc3ccccc3)c(O)[nH]c12 | > 10 µM (inactive)
COc1cccc(C2C=C(c3cccs3)Nc3ncnn32)c1OC (stereo unspecified) | > 10 µM (inactive)
O=C1C(Br)=Cc2cccc3cccc1c23 | 3.06 µM
CCN(CC)c1ccc(/C=C(/C#N)c2nc3ccc(C)cc3[nH]2)c(OC(C)C)c1 | 1.16 µM
COc1ccc(-n2c(O)c(/C=N/NS(=O)(=O)c3cc(C)ccc3C)c3ccccc3c2=O)cc1OC | 1.32 µM
CCN(CC)Cc1c(O)ccc2c1O/C(=C\C=C\c1ccccc1)C2=O | 4.38 µM
Cc1cccc(N2C(=O)NC(=O)/C(=C/c3cc4c(cc3[N+](=O)[O-])OCO4)C2=O)c1 | 9.86 µM
COc1ccc(/C(O)=C/c2nc3ccccc3n(-c3ccccc3)c2=O)cc1 | 3.25 µM
CCC(=O)Oc1ccc2c(c1)O/C(=C\c1ccco1)C2=O | 5.51 µM
O=C1C(Cl)=C(NC2CCCCC2)C(=O)N1c1ccc(Cl)cc1 | > 10 µM (inactive)

Same assay, conditions: purified MEX-5-MBP, FITC-TCR2 RNA fluorescence polarization; at 10 µM (top of the series)

Compound | activity change, negative = inhibition
CC1(C)NC(=O)NC2(C)NC(=O)NC(C)(C)C12 (stereo unspecified) | inactive
COc1ccc(-c2cn[nH]c2-c2ccc(O)cc2O)cc1OC | inactive
Cc1cccn2c(=O)c3cc(S(=O)(=O)c4ccc(Br)cc4)c(=N)n(C4CCCCC4)c3nc12 | inactive
COc1ccccc1C(=O)NNC(=O)c1csc(N2CCOCC2)n1 | inactive
Cc1cc(C(=O)N/N=C/c2ccc(-c3ccc(C)c(Cl)c3)o2)n[nH]1 | inactive
Oc1cccc(/C=N/NC(=S)Nc2cccnc2)c1O | inactive
NC(=O)C(=O)N/N=C1\CCc2ccccc21 | inactive
O=C(O)c1ccc2c(c1)ncn2C1CCCCC1 | inactive
O=C(O)CSc1ncnc2nc[nH]c12 | inactive
NC(=O)c1cccc2cc3ccccc3cc12 | inactive
Cc1cc([N+](=O)[O-])nn1CC(=O)NNC(=S)Nc1ccc(F)cc1 | inactive
CCOC(=O)[C@]1(C#N)[C@@H]2C=CC(C(N)=O)=CN2[C@@H](C(N)=O)[C@@H]1c1ccc(F)cc1 | inactive
O=C(NC1CCSc2ccccc21)c1cccc(Br)c1 (stereo unspecified) | inactive
COc1ccc(NC(=S)NNC(=O)C(C)n2nc(C)c([N+](=O)[O-])c2C)cc1 (stereo unspecified) | inactive
Oc1ccc(C2C=C(c3ccc(F)cc3)Nc3ncnn32)cc1 (stereo unspecified) | inactive
NC(=S)N=Nc1c(O)[nH]c2cc(F)c(F)cc12 | inactive
COc1ccc(C2c3sc(=O)[nH]c3SCC2C(N)=O)cc1 (stereo unspecified) | inactive
CC1CN(Cc2c(O)ccc3c2oc(=O)c2ccccc23)CC(C)O1 (stereo unspecified) | inactive

Compound | activity change, negative = inhibition
Nc1c(C(=O)Nc2ccccc2)sc2nc3c(c(-c4ccco4)c12)CCC3 | inactive
CN1C(=O)N(C)C(c2cccc([N+](=O)[O-])c2)C2=C1CCCC2=O (stereo unspecified) | inactive
COc1ccc(-c2cn[nH]c2-c2ccc(OCC(=O)NN)cc2O)cc1 | inactive
CCOc1ccccc1C1NC(=O)NC(C)=C1C(=O)OCc1ccccc1 (stereo unspecified) | inactive
Cc1cc(C)c[n+](-c2nc([O-])sc2C=O)c1 | inactive
Cc1cccc(/C=N/NC(=O)Cn2nnnc2N)n1 | inactive
Cc1cccc(C(=O)NNC(=O)c2ccco2)c1O | inactive
COc1ccc(C[C@@H]2c3cc(O)c(OC)cc3CCN2C)cc1O | inactive
CCOc1ccc2nc(N=Nc3c(O)[nH]c(=O)[nH]c3=O)sc2c1 | inactive
COc1ccc(/C=C2\CCCc3c2nc2ccc(C)cc2c3C(=O)O)cc1O | inactive
CCOc1ccc(N2C(=O)C(Cl)=C(Nc3ccccc3O)C2=O)cc1 | inactive
C=CCOc1ccc(C(c2c(C(=O)O)[nH]c3ccccc23)c2c(C(=O)O)[nH]c3ccccc23)cc1 | inactive
CCN(CC)c1ccc(C(=O)N/N=C(\C)c2cccnc2)cc1 | inactive
COc1c(OC2OC(C(=O)O)C(O)C(O)C2O)cc(O)c2c(=O)cc(-c3ccccc3)oc12 (stereo unspecified) | inactive
NC1=C([N+](=O)[O-])C(c2ccc3c(c2)OCO3)C2=C(CCCC2=O)O1 (stereo unspecified) | inactive
CN1CCc2c(sc(NC(=O)C3CCCN3S(=O)(=O)c3ccc(Cl)s3)c2C(N)=O)C1 (stereo unspecified) | inactive
COC(=O)C1CSc2[nH]c(=O)sc2C1c1ccc(O)c(OC)c1 (stereo unspecified) | inactive
CCOC(=O)C1Cc2ccccc2C(=O)O1 (stereo unspecified) | inactive
